Experimental data as given in the supplement of paper PMC10307832.

Experiments:
Experiment in all cases: relative viability (nuclei count vs DMSO), 5 days (fraction); higher = more cells survive
RU-SKI 43 + Decitabine = compound: CC[C@@H](C)CNCC(=O)N1CCC2=C([C@@H]1COC3=CC=CC(=C3)C)C=CS2 [RU-SKI 43] + Nc1ncn([C@H]2C[C@H](O)[C@@H](CO)O2)c(=O)n1 [Decitabine] (partner 2 µM)
In short: (§1)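 Each reported value is a median over duplicate plates. It expresses relative viability: treated-well nuclei count divided by vehicle-well nuclei count. Lung cancer cell lines in 1536-well plates were dosed by pin tool a day after seeding, alone with one drug or with a fixed anchor-drug dose plus five library-drug doses (not always all listed) in √10 steps, and nuclei were counted after 5 days.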

MK-8033 + Luminespib = compound: Cn1cc(-c2cnc3ccc4ccc(CS(=O)(=O)NCc5ccccn5)cc4c(=O)c3c2)cn1 [MK-8033] + CCNC(=O)c1noc(-c2cc(C(C)C)c(O)cc2O)c1-c1ccc(CN2CCOCC2)cc1 [Luminespib] (partner 0.01 µM)
In short: as §1

Irinotecan + Luminespib = compound: CCc1c2c(nc3ccc(OC(=O)N4CCC(N5CCCCC5)CC4)cc13)-c1cc3c(c(=O)n1C2)COC(=O)[C@]3(O)CC [Irinotecan] + CCNC(=O)c1noc(-c2cc(C(C)C)c(O)cc2O)c1-c1ccc(CN2CCOCC2)cc1 [Luminespib] (partner 0.01 µM)
In short: as §1

RU-SKI 43 + Crizotinib = compound: CC[C@@H](C)CNCC(=O)N1CCC2=C([C@@H]1COC3=CC=CC(=C3)C)C=CS2 [RU-SKI 43] + C[C@@H](Oc1cc(-c2cnn(C3CCNCC3)c2)cnc1N)c1c(Cl)ccc(F)c1Cl [Crizotinib] (partner 1 µM)
In short: as §1

UMC-11
relative viability (RU-SKI 43 + Decitabine; first compound 0.1 µM): 0.668 | relative viability (RU-SKI 43 + Decitabine; first compound 0.3162 µM): 0.614 | relative viability (RU-SKI 43 + Decitabine; first compound 1 µM): 0.675 | relative viability (RU-SKI 43 + Decitabine; first compound 3.162 µM): 0.619 | relative viability (RU-SKI 43 + Decitabine; first compound 10 µM): 0.64 | relative viability (MK-8033 + Luminespib; first compound 0.02 µM): 1.03 | relative viability (MK-8033 + Luminespib; first compound 0.06325 µM): 0.935 | relative viability (MK-8033 + Luminespib; first compound 0.2 µM): 1.03 | relative viability (MK-8033 + Luminespib; first compound 2 µM): 0.988 | relative viability (Irinotecan + Luminespib; first compound 0.6325 µM): 0.569 | relative viability (Irinotecan + Luminespib; first compound 2 µM): 0.491 | relative viability (Irinotecan + Luminespib; first compound 6.325 µM): 0.383 | relative viability (Irinotecan + Luminespib; first compound 20 µM): 0.192 | relative viability (RU-SKI 43 + Crizotinib; first compound 0.1 µM): 0.763 | relative viability (RU-SKI 43 + Crizotinib; first compound 0.3162 µM): 0.707 | relative viability (RU-SKI 43 + Crizotinib; first compound 1 µM): 0.664 | relative viability (RU-SKI 43 + Crizotinib; first compound 3.162 µM): 0.654 | relative viability (RU-SKI 43 + Crizotinib; first compound 10 µM): 0.399
